According to patent publication US6897036B2, “Fluorescent detection of peroxidase enzymes” (Lumigen, Inc., priority 2002, dated 2005):

Target: T1, HRP (Armoracia rusticana, UniProt P00433)
T1 sequence (P00433 31-338): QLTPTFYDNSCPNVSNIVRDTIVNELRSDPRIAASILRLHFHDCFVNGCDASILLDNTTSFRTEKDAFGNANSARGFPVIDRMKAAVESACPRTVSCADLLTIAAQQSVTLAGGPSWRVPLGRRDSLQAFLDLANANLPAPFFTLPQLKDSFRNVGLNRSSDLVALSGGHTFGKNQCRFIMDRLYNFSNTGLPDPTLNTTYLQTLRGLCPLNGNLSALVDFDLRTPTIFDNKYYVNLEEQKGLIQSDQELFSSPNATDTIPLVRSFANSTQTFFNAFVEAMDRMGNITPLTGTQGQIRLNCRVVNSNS
Assay: Detection of HRP with acridan substrate 13 by chemiluminescence and fluorescence (FIG. 5)
Type: biochemical, horseradish
Conditions: 0.05 mM substrate
Method: FIG. 5 is a graph showing the linearity of detection of HRP using reagent compositions containing substrate 13 with fluorescence and chemiluminescence detection. A solution containing 0.05 mM compound 13, 0.1 mM 4-phenylphenol, 0.5 mM urea peroxide, 1 mM EDTA, 0.025% TWEEN 20 in 10 mM tris, pH 8.0 was reacted with the indicated quantities of HRP. Chemiluminescence intensity was measured 10 min after addition of enzyme, fluorescence at 515 nm was measured 30 min after addition of enzyme.
Chemiluminescent HRP detection limit using a reagent composition containing 0.05 mM 2′,3′,6′-trifluorophenyl 3-methoxy-10-methylacridan-9-carboxylate (compound 13), 0.1 mM 4-phenylphenol, 0.5 mM urea peroxide, 1 mM EDTA, and 0.025% TWEEN 20 in 0.01 M tris buffer, pH 8.0 was obtained on a Labsystems Luminoskan microtiter plate reader. White Microlite 1 FB 12-well strips (Dynatech Laboratories) containing 100 μL of the reagent in each well were reacted with 10 μL of HRP dilutions. Light intensity was measured at 10 min.
Sensitive detection of HRP was achieved using the reaction solutions of Example 22 producing fluorescence by the second mode. After making the chemiluminescence measurement, the strips were transferred to the fluorometer and fluorescence intensity determined at 530 nm with excitation at 380 nm.

COc1ccc2c(c1)N(C)c1ccccc1C2C(=O)Oc1c(F)ccc(F)c1F (centres unmarked) [Compound 13, 2′,3′,6′-trifluorophenyl 3-methoxy-10-methylacridan-9-carboxylate]
Detectable amount of HRP (fluorescence, second mode) (tris pH 8.0, fluorescence at 530 nm, excitation 380 nm): less than 1 amol
Sensitivity of fluorescent detection compared with chemiluminescent detection (in words) (tris pH 8.0, same reaction solutions): equivalent to chemiluminescent detection
